# Source: PubChem BioAssay (NCI)
# “And” between values parts separate entries of the source, which are not always exact repeats. Equal entries are not always repeated.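 Where inhibition never reached the appropriate level, the endpoint shown equals the highest concentration tested. Otherwise, values were interpolated linearly from a five-concentration, 48-hour dose response in 96-well plates. GI50 is the concentration that inhibits growth by half. TGI denotes the concentration required for complete inhibition of growth.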
# Experiments:
# Assay in all cases: NCI-60 cell line screen, 48 h
# SW-620 colon = tested on: SW-620 colon
# LOX IMVI melanoma = tested on: LOX IMVI melanoma
# OVCAR-8 ovarian = tested on: OVCAR-8 ovarian
# NCI-H226 lung = tested on: NCI-H226 lung
# HT29 colon = tested on: HT29 colon
# HS 578T breast = tested on: HS 578T breast
# K-562 leukemia = tested on: K-562 leukemia
# MALME-3M melanoma = tested on: MALME-3M melanoma
# MCF7 breast = tested on: MCF7 breast
# MDA-N = tested on: MDA-N
# SNB-19 CNS = tested on: SNB-19 CNS
# IGROV1 ovarian = tested on: IGROV1 ovarian
# SNB-75 CNS = tested on: SNB-75 CNS
# EKVX NSCLC = tested on: EKVX NSCLC
# A498 renal = tested on: A498 renal
# NCI/ADR-RES ovarian = tested on: NCI/ADR-RES ovarian
# HCT-15 colon = tested on: HCT-15 colon
# COLO 205 colon = tested on: COLO 205 colon
# NCI-H460 lung = tested on: NCI-H460 lung
# SF-295 CNS = tested on: SF-295 CNS
# OVCAR-4 ovarian = tested on: OVCAR-4 ovarian
# ACHN renal = tested on: ACHN renal
# HCC-2998 colon = tested on: HCC-2998 colon
# OVCAR-5 ovarian = tested on: OVCAR-5 ovarian
# PC-3 prostate = tested on: PC-3 prostate
# KM12 colon = tested on: KM12 colon
# BT-549 breast = tested on: BT-549 breast
# MDA-MB-231 breast = tested on: MDA-MB-231 breast
# UACC-257 melanoma = tested on: UACC-257 melanoma
# SK-MEL-2 melanoma = tested on: SK-MEL-2 melanoma
# T-47D breast = tested on: T-47D breast
# NCI-H522 lung = tested on: NCI-H522 lung
# HOP-62 NSCLC = tested on: HOP-62 NSCLC
# RPMI-8226 leukemia = tested on: RPMI-8226 leukemia
# SF-539 CNS = tested on: SF-539 CNS
# U251 CNS = tested on: U251 CNS
# A549 NSCLC = tested on: A549 NSCLC
# M14 melanoma = tested on: M14 melanoma
# SF-268 CNS = tested on: SF-268 CNS
# NCI-H23 lung = tested on: NCI-H23 lung
# MDA-MB-435 = tested on: MDA-MB-435
# HCT-116 colon = tested on: HCT-116 colon
# SK-OV-3 ovarian = tested on: SK-OV-3 ovarian
# UACC-62 melanoma = tested on: UACC-62 melanoma
# MOLT-4 leukemia = tested on: MOLT-4 leukemia
# RXF 393 renal = tested on: RXF 393 renal
# CAKI-1 renal = tested on: CAKI-1 renal
# SK-MEL-28 melanoma = tested on: SK-MEL-28 melanoma
# HOP-92 NSCLC = tested on: HOP-92 NSCLC
# DU-145 prostate = tested on: DU-145 prostate
# 786-0 renal = tested on: 786-0 renal
# TK-10 renal = tested on: TK-10 renal
# UO-31 renal = tested on: UO-31 renal
# SN12C renal = tested on: SN12C renal
# OVCAR-3 ovarian = tested on: OVCAR-3 ovarian
# CCRF-CEM leukemia = tested on: CCRF-CEM leukemia
# SK-MEL-5 melanoma = tested on: SK-MEL-5 melanoma
# HL-60(TB) leukemia = tested on: HL-60(TB) leukemia
compound,measurement,setting,value
CCCCSC1=N/C(=C\c2ccc(N(C)C)cc2)C(Cl)=N1,TGI,SW-620 colon,> 100 µM
same,TGI,LOX IMVI melanoma,> 100 µM
same,TGI,OVCAR-8 ovarian,> 100 µM
same,TGI,NCI-H226 lung,> 100 µM
same,TGI,HT29 colon,> 100 µM
same,TGI,HS 578T breast,> 100 µM
same,TGI,K-562 leukemia,> 100 µM
same,TGI,MALME-3M melanoma,> 100 µM
same,TGI,MCF7 breast,> 100 µM
same,TGI,MDA-N,> 100 µM
same,TGI,SNB-19 CNS,> 100 µM
same,TGI,IGROV1 ovarian,> 100 µM
same,TGI,SNB-75 CNS,> 100 µM
same,TGI,EKVX NSCLC,> 100 µM
same,TGI,A498 renal,> 100 µM
same,TGI,NCI/ADR-RES ovarian,> 100 µM
same,TGI,HCT-15 colon,> 100 µM
same,TGI,COLO 205 colon,> 100 µM
same,TGI,NCI-H460 lung,> 100 µM
same,TGI,SF-295 CNS,> 100 µM
same,TGI,OVCAR-4 ovarian,> 100 µM
same,TGI,ACHN renal,> 100 µM
same,TGI,HCC-2998 colon,> 100 µM
same,TGI,OVCAR-5 ovarian,> 100 µM
same,TGI,PC-3 prostate,> 100 µM
same,TGI,KM12 colon,> 100 µM
same,TGI,BT-549 breast,> 100 µM
same,TGI,MDA-MB-231 breast,> 100 µM
same,TGI,UACC-257 melanoma,> 100 µM
same,TGI,SK-MEL-2 melanoma,> 100 µM
same,TGI,T-47D breast,> 100 µM
same,TGI,NCI-H522 lung,> 100 µM
same,TGI,HOP-62 NSCLC,> 100 µM
same,TGI,RPMI-8226 leukemia,> 100 µM
same,TGI,SF-539 CNS,> 100 µM
same,TGI,U251 CNS,> 100 µM
same,TGI,A549 NSCLC,> 100 µM
same,TGI,M14 melanoma,> 100 µM
same,TGI,SF-268 CNS,> 100 µM
same,TGI,NCI-H23 lung,> 100 µM
same,TGI,MDA-MB-435,> 100 µM
same,TGI,HCT-116 colon,> 100 µM
same,TGI,SK-OV-3 ovarian,> 100 µM
same,TGI,UACC-62 melanoma,> 100 µM
same,TGI,MOLT-4 leukemia,> 100 µM
same,TGI,RXF 393 renal,> 100 µM
same,TGI,CAKI-1 renal,> 100 µM
same,TGI,SK-MEL-28 melanoma,> 100 µM
same,TGI,HOP-92 NSCLC,> 100 µM
same,TGI,DU-145 prostate,> 100 µM
same,TGI,786-0 renal,> 100 µM
same,TGI,TK-10 renal,> 100 µM
same,TGI,UO-31 renal,> 100 µM
same,TGI,SN12C renal,> 100 µM
same,TGI,OVCAR-3 ovarian,> 100 µM
CCC1(N)C(=O)OCc2c1cc1n(c2=O)Cc2cc3ccccc3nc2-1 (centres undefined),GI50,SW-620 colon,12.9 µM
same,TGI,SW-620 colon,> 100 µM
same,TGI,LOX IMVI melanoma,28.2 µM and 33.6 µM
same,GI50,OVCAR-8 ovarian,12 µM
same,TGI,OVCAR-8 ovarian,> 72.4 µM
same,GI50,NCI-H226 lung,2.71 µM
same,TGI,NCI-H226 lung,34.3 µM and 97.1 µM
same,TGI,HT29 colon,> 100 µM
same,GI50,HS 578T breast,> 69.6 µM
same,TGI,HS 578T breast,> 100 µM
same,GI50,K-562 leukemia,5.36 µM
same,TGI,K-562 leukemia,> 100 µM
same,GI50,MALME-3M melanoma,24.5 µM
same,TGI,MALME-3M melanoma,> 100 µM
same,GI50,MCF7 breast,2.82 µM
same,TGI,MCF7 breast,> 100 µM
same,GI50,CCRF-CEM leukemia,1.96 µM
same,GI50,MDA-N,21.8 µM
same,TGI,MDA-N,> 100 µM
same,TGI,SNB-19 CNS,> 100 µM
same,GI50,IGROV1 ovarian,15.6 µM
same,TGI,IGROV1 ovarian,> 100 µM
same,TGI,SNB-75 CNS,> 78.9 µM
same,GI50,EKVX NSCLC,20.7 µM
same,TGI,EKVX NSCLC,> 100 µM
same,GI50,A498 renal,10.6 µM
same,TGI,A498 renal,34.4 µM and 46.2 µM
same,GI50,NCI/ADR-RES ovarian,7.18 µM
same,TGI,NCI/ADR-RES ovarian,> 54.1 µM and 61.3 µM
same,GI50,HCT-15 colon,19.7 µM
same,TGI,HCT-15 colon,> 100 µM
same,GI50,COLO 205 colon,16.7 µM
same,TGI,COLO 205 colon,> 100 µM
same,GI50,NCI-H460 lung,1.72 µM
same,GI50,SF-295 CNS,3.45 µM
same,TGI,SF-295 CNS,50.2 µM and > 100 µM
same,GI50,OVCAR-4 ovarian,38.2 µM
same,TGI,OVCAR-4 ovarian,> 100 µM
same,GI50,ACHN renal,2.75 µM
same,TGI,ACHN renal,12.2 µM and 21.3 µM
same,GI50,HCC-2998 colon,14.1 µM
same,TGI,HCC-2998 colon,41.1 µM and > 100 µM
same,GI50,OVCAR-5 ovarian,30 µM
same,TGI,OVCAR-5 ovarian,> 100 µM
same,TGI,PC-3 prostate,> 100 µM
same,GI50,KM12 colon,26.1 µM
same,TGI,KM12 colon,> 100 µM
same,TGI,BT-549 breast,> 100 µM
same,GI50,MDA-MB-231 breast,49.3 µM
same,TGI,MDA-MB-231 breast,> 100 µM
same,GI50,UACC-257 melanoma,24.4 µM
same,TGI,UACC-257 melanoma,> 100 µM
same,GI50,SK-MEL-2 melanoma,48.8 µM
same,TGI,SK-MEL-2 melanoma,> 100 µM
same,GI50,T-47D breast,5.78 µM
same,TGI,T-47D breast,> 100 µM and 18.4 µM
same,GI50,NCI-H522 lung,8.51 µM
same,TGI,NCI-H522 lung,> 100 µM
same,GI50,HOP-62 NSCLC,4.77 µM
same,TGI,HOP-62 NSCLC,> 100 µM
same,GI50,RPMI-8226 leukemia,3.66 µM
same,TGI,RPMI-8226 leukemia,81.5 µM and > 100 µM
same,GI50,SK-MEL-5 melanoma,7.17 µM
same,TGI,SK-MEL-5 melanoma,20.4 µM and > 47.8 µM
same,GI50,SF-539 CNS,2.93 µM
same,TGI,SF-539 CNS,11.8 µM and > 47.9 µM
same,GI50,U251 CNS,4.9 µM
same,TGI,U251 CNS,> 100 µM
same,GI50,A549 NSCLC,5.05 µM
same,TGI,A549 NSCLC,> 100 µM
same,TGI,M14 melanoma,54 µM and > 100 µM
same,TGI,SF-268 CNS,> 100 µM
same,TGI,NCI-H23 lung,38.2 µM and 54.4 µM
same,GI50,HL-60(TB) leukemia,4.44 µM
same,GI50,MDA-MB-435,21.1 µM
same,TGI,MDA-MB-435,> 100 µM
same,GI50,HCT-116 colon,6.51 µM
same,TGI,HCT-116 colon,23.4 µM and > 100 µM
same,GI50,SK-OV-3 ovarian,8.99 µM
same,TGI,SK-OV-3 ovarian,72 µM and > 100 µM
same,GI50,UACC-62 melanoma,3.89 µM
same,TGI,UACC-62 melanoma,20.5 µM and 14.1 µM
same,GI50,MOLT-4 leukemia,1.83 µM
same,TGI,MOLT-4 leukemia,> 41.7 µM
same,GI50,RXF 393 renal,15.4 µM
same,TGI,RXF 393 renal,63.1 µM and > 100 µM
same,GI50,CAKI-1 renal,3.26 µM
same,TGI,CAKI-1 renal,> 52.2 µM and 45.9 µM
same,GI50,SK-MEL-28 melanoma,41.7 µM
same,TGI,SK-MEL-28 melanoma,> 100 µM
same,GI50,HOP-92 NSCLC,28.4 µM
same,TGI,HOP-92 NSCLC,> 100 µM and 99 µM
same,GI50,DU-145 prostate,5.79 µM
same,TGI,DU-145 prostate,> 68.7 µM and 21.2 µM
same,GI50,786-0 renal,3.31 µM
same,TGI,786-0 renal,49.8 µM and > 54.6 µM
same,GI50,TK-10 renal,51 µM
same,TGI,TK-10 renal,> 100 µM
same,GI50,UO-31 renal,4.43 µM
same,TGI,UO-31 renal,20.9 µM and 17.4 µM
same,GI50,SN12C renal,6.27 µM
same,TGI,SN12C renal,> 100 µM
same,GI50,OVCAR-3 ovarian,17.2 µM
same,TGI,OVCAR-3 ovarian,42.6 µM and > 100 µM
